From PubChem BioAssay (NCI)
“And” between values parts separate entries of the source, which are not always exact repeats. Identical values can stand only once.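 Five concentrations, 48 hours, 96-well plates. GI50 is the concentration that inhibits growth by half. TGI denotes the concentration required for complete inhibition of growth.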

Assays:
Assay in all cases: NCI-60 cell line screen, 48 h
CCRF-CEM leukemia = system: CCRF-CEM leukemia
DMS 114 small cell lung = system: DMS 114 small cell lung
IGROV1 ovarian = system: IGROV1 ovarian
OVCAR-4 ovarian = system: OVCAR-4 ovarian
HL-60(TB) leukemia = system: HL-60(TB) leukemia
SW-620 colon = system: SW-620 colon
SN12C renal = system: SN12C renal
NCI-H226 lung = system: NCI-H226 lung
K-562 leukemia = system: K-562 leukemia
SR leukemia = system: SR leukemia
RPMI-8226 leukemia = system: RPMI-8226 leukemia
SK-MEL-5 melanoma = system: SK-MEL-5 melanoma
RXF-631 renal = system: RXF-631 renal
MDA-N = system: MDA-N
UO-31 renal = system: UO-31 renal
NCI-H460 lung = system: NCI-H460 lung
DMS 273 small cell lung = system: DMS 273 small cell lung
DU-145 prostate = system: DU-145 prostate
XF 498 CNS = system: XF 498 CNS
M14 melanoma = system: M14 melanoma
TK-10 renal = system: TK-10 renal
SK-MEL-28 melanoma = system: SK-MEL-28 melanoma
HOP-62 NSCLC = system: HOP-62 NSCLC
CAKI-1 renal = system: CAKI-1 renal
SNB-19 CNS = system: SNB-19 CNS
M19-MEL melanoma = system: M19-MEL melanoma
OVCAR-8 ovarian = system: OVCAR-8 ovarian
786-0 renal = system: 786-0 renal
HCT-116 colon = system: HCT-116 colon
MDA-MB-435 = system: MDA-MB-435
SF-295 CNS = system: SF-295 CNS
NCI-H23 lung = system: NCI-H23 lung
PC-3 prostate = system: PC-3 prostate
KM12 colon = system: KM12 colon
DLD-1 colon = system: DLD-1 colon
SK-OV-3 ovarian = system: SK-OV-3 ovarian
MCF7 breast = system: MCF7 breast
HT29 colon = system: HT29 colon
MALME-3M melanoma = system: MALME-3M melanoma
UACC-257 melanoma = system: UACC-257 melanoma
LXFL 529 NSCLC = system: LXFL 529 NSCLC
U251 CNS = system: U251 CNS
OVCAR-5 ovarian = system: OVCAR-5 ovarian
HOP-92 NSCLC = system: HOP-92 NSCLC
SNB-75 CNS = system: SNB-75 CNS
UACC-62 melanoma = system: UACC-62 melanoma
COLO 205 colon = system: COLO 205 colon
NCI/ADR-RES ovarian = system: NCI/ADR-RES ovarian
BT-549 breast = system: BT-549 breast
ACHN renal = system: ACHN renal
OVCAR-3 ovarian = system: OVCAR-3 ovarian
NCI-H522 lung = system: NCI-H522 lung
SK-MEL-2 melanoma = system: SK-MEL-2 melanoma
LOX IMVI melanoma = system: LOX IMVI melanoma
HOP-18 NSCLC = system: HOP-18 NSCLC
SNB-78 CNS = system: SNB-78 CNS
SF-268 CNS = system: SF-268 CNS
MOLT-4 leukemia = system: MOLT-4 leukemia
T-47D breast = system: T-47D breast
RXF 393 renal = system: RXF 393 renal
MDA-MB-231 breast = system: MDA-MB-231 breast
HCT-15 colon = system: HCT-15 colon
A498 renal = system: A498 renal
A549 NSCLC = system: A549 NSCLC
HCC-2998 colon = system: HCC-2998 colon
HS 578T breast = system: HS 578T breast
EKVX NSCLC = system: EKVX NSCLC
SF-539 CNS = system: SF-539 CNS

Compound: C/C(=N\NC(=S)N1CCN(c2ccccn2)CC1)c1nccs1
- GI50 (CCRF-CEM leukemia): 0.00596 µM
- TGI (CCRF-CEM leukemia): 0.256 µM
- TGI (DMS 114 small cell lung): 0.649 µM
- GI50 (IGROV1 ovarian): 0.0817 µM
- TGI (IGROV1 ovarian): 20.2 µM
- TGI (OVCAR-4 ovarian): 22.5 µM
- GI50 (HL-60(TB) leukemia): 0.00712 µM
- TGI (HL-60(TB) leukemia): 0.0419 µM and 0.0526 µM
- TGI (SW-620 colon): 20.2 µM
- TGI (SN12C renal): 15.9 µM
- TGI (NCI-H226 lung): 6.66 µM
- GI50 (K-562 leukemia): 0.00649 µM
- TGI (K-562 leukemia): 6.33 µM
- GI50 (SR leukemia): 0.236 µM
- TGI (SR leukemia): 4.63 µM
- GI50 (RPMI-8226 leukemia): 0.0145 µM
- TGI (RPMI-8226 leukemia): 23.2 µM
- TGI (SK-MEL-5 melanoma): 6.3 µM
- TGI (RXF-631 renal): 24.2 µM
- TGI (MDA-N): 16.6 µM
- TGI (UO-31 renal): 14 µM
- TGI (NCI-H460 lung): 2.3 µM
- TGI (DMS 273 small cell lung): 11.4 µM
- TGI (DU-145 prostate): 14.1 µM
- TGI (XF 498 CNS): 32.1 µM
- TGI (M14 melanoma): 1.49 µM
- TGI (TK-10 renal): 20 µM
- TGI (SK-MEL-28 melanoma): 19.9 µM
- TGI (HOP-62 NSCLC): 16.8 µM
- TGI (CAKI-1 renal): 19.9 µM
- TGI (SNB-19 CNS): 32.8 µM
- TGI (M19-MEL melanoma): 2.34 µM
- TGI (OVCAR-8 ovarian): 14.4 µM
- TGI (786-0 renal): 13 µM
- GI50 (HCT-116 colon): 0.0156 µM
- TGI (HCT-116 colon): 20.2 µM
- TGI (MDA-MB-435): 12.8 µM
- TGI (SF-295 CNS): 20.7 µM
- GI50 (NCI-H23 lung): 0.0643 µM
- TGI (NCI-H23 lung): 13.8 µM
- GI50 (PC-3 prostate): 0.525 µM
- TGI (PC-3 prostate): 17.4 µM
- TGI (KM12 colon): 18.9 µM
- TGI (DLD-1 colon): 34.4 µM
- TGI (SK-OV-3 ovarian): 18.3 µM
- GI50 (MCF7 breast): 0.377 µM
- TGI (MCF7 breast): 18.3 µM
- TGI (HT29 colon): 33.7 µM
- TGI (MALME-3M melanoma): 18.5 µM
- TGI (UACC-257 melanoma): 12.8 µM
- TGI (LXFL 529 NSCLC): 22 µM
- TGI (U251 CNS): 9.8 µM
- GI50 (OVCAR-5 ovarian): 0.0544 µM
- TGI (OVCAR-5 ovarian): 27.4 µM
- GI50 (HOP-92 NSCLC): 0.017 µM
- TGI (SNB-75 CNS): 19.4 µM
- TGI (UACC-62 melanoma): 0.834 µM
- GI50 (COLO 205 colon): 0.0361 µM
- TGI (COLO 205 colon): 15.3 µM
- GI50 (NCI/ADR-RES ovarian): 0.279 µM
- TGI (NCI/ADR-RES ovarian): 2.56 µM
- TGI (BT-549 breast): 18 µM
- TGI (ACHN renal): 9.96 µM
- GI50 (OVCAR-3 ovarian): 0.00821 µM and < 0.0205 µM
- GI50 (NCI-H522 lung): 0.0574 µM and 0.261 µM
- TGI (NCI-H522 lung): 16.3 µM
- TGI (SK-MEL-2 melanoma): 9.9 µM
- GI50 (LOX IMVI melanoma): 0.0952 µM
- TGI (LOX IMVI melanoma): 2.42 µM
- TGI (HOP-18 NSCLC): > 90.8 µM
- TGI (SNB-78 CNS): 71.4 µM
- TGI (SF-268 CNS): > 54.2 µM
- GI50 (MOLT-4 leukemia): 0.00504 µM
- TGI (MOLT-4 leukemia): 22.3 µM
- GI50 (T-47D breast): 0.855 µM
- TGI (T-47D breast): 22.1 µM
- TGI (RXF 393 renal): 17.4 µM
- GI50 (MDA-MB-231 breast): 0.796 µM
- TGI (MDA-MB-231 breast): 20 µM
- GI50 (HCT-15 colon): 0.0472 µM
- TGI (HCT-15 colon): 21.3 µM
- TGI (A498 renal): 17.4 µM
- TGI (A549 NSCLC): 13.3 µM
- TGI (HCC-2998 colon): 14.9 µM
- TGI (HS 578T breast): 38.3 µM
- GI50 (EKVX NSCLC): 0.0334 µM
- TGI (EKVX NSCLC): 10.6 µM
- TGI (SF-539 CNS): 4.37 µM
